Experimental data published in US9334263B2, “Compositions useful for treating disorders related to kit” (BLUEPRINT MEDICINES CORPORATION, priority 2013, dated 2016).

Legend:
[1] = biological target: T1, PDGFRA D842V (Homo sapiens, UniProt P16234, D842V); assay: PDGFRA D842V assay at Km (Caliper electrophoretic mobility shift); type: biochemical; conditions: 15 uM ATP, 25 C, 90 minutes; read-out: PDFGRA D842V
T1 construct: purchased ProQinase 0761-0000-1
Procedure: (§1) In order to assess the activity of chemical compounds against the relevant kinase of interest, the Caliper LifeSciences electrophoretic mobility shift technology platform is used. Fluorescently labeled substrate peptide is incubated in the presence of kinase and ATP so that a […] proportion of the peptide is phosphorylated. At the end of the reaction, the mix of phosphorylated (product) and non-phosphorylated (substrate) peptides are passed through the microfluidic system of the Caliper EZ Reader 2, under an applied potential difference. The presence of the phosphate group on the product peptide provides a difference in mass and charge between those of the substrate peptide, resulting in a separation of the substrate and product pools in the sample. As the pools pass a LEDS within the instrument, these pools are detected and resolved as separate peaks. The ratio between these peaks therefore reflects the activity of the chemical matter at that concentration in that well, under those conditions.
(§2) The reaction was stopped by the addition of 70 ul of Stop buffer (100 mM HEPES pH 7.5, 0.015% Brij 35, 35 mM EDTA and 0.2% of Coating Reagent 3 (Caliper Lifesciences)). The plate was then read on a Caliper EZReader 2 (protocol settings: −1.9 psi, upstream voltage −500, downstream voltage −3000, post sample sip 38 s).

[2] = biological target: T2, D816V Kit (Homo sapiens, UniProt P10721, D816V); assay: Kit D816V assay at Km (Caliper electrophoretic mobility shift); type: biochemical; conditions: 15 uM ATP, 25 C, 90 minutes
T2 construct: purchased Carna Bioscience 08-156
T2 sequence (P10721 26-976 D816V): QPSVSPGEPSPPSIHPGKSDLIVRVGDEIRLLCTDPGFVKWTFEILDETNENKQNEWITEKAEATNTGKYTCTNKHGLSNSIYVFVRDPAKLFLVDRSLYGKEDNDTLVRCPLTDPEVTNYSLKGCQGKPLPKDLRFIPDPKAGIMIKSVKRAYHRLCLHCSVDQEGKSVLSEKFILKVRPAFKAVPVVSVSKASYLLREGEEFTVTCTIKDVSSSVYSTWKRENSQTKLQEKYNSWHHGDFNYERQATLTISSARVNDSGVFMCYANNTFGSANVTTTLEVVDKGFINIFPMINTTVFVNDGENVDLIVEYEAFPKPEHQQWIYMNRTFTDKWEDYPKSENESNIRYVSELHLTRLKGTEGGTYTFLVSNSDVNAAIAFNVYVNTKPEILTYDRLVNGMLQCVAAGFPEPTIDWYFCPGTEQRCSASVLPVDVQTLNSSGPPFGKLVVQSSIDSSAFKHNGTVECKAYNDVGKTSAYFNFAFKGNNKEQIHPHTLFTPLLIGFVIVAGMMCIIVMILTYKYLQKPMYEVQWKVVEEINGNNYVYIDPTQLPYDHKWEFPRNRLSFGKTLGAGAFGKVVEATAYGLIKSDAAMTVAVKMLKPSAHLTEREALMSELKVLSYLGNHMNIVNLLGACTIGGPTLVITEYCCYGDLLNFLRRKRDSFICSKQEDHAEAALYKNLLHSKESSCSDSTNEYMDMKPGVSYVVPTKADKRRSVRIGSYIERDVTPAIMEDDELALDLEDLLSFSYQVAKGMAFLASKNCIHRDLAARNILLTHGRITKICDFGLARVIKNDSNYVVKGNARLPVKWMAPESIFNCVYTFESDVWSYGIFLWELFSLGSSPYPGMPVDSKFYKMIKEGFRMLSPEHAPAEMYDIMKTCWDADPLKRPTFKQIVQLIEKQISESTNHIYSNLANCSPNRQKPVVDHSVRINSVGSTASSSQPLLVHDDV
Summary of the method: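 Read-out is the ratio of phosphorylated to unphosphorylated fluorescent peptide, resolved by mobility shift on a Caliper EZ Reader 2.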

[3] = biological target: T3, wild type Kit (Homo sapiens, UniProt P10721); assay: Kit wild type assay at Km (Caliper electrophoretic mobility shift); type: biochemical; conditions: 400 uM ATP, 25 C, 90 minutes; read-out: WT KIT
T3 construct: purchased Carna Bioscience 08-156
T3 sequence (P10721 26-976): as the sequence (P10721 26-976 D816V) above, with V791D counted along it
Procedure: as §1
as §2, with “−700,” for “−500,”, “35” for “38”

[4] = biological target: T4, Kit D816V (HMC1.2 cells, Kit V560G and D816V) (Homo sapiens, UniProt P10721, D816V/V560G); assay: HMC1.2 autophosphorylation assay (AlphaLISA, phospho-Y719 c-Kit); type: cell-based; conditions: Kit autophosphorylation at tyrosine 719, 90 minutes, read-out: Cellular Activity
T4 construct: endogenous in cells; host or cells: HMC1.2 cells
T4 sequence (P10721 26-976 V560G/D816V): as the sequence (P10721 26-976 D816V) above, with V535G counted along it
Summary of the method: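 AlphaScreen signal comes from lysed HMC1.2 cells incubated with phospho-Y719 and total c-Kit antibodies (15 nM final), acceptor beads and then streptavidin donor beads, 2 h each at room temperature. Beforehand, cells deprived of serum overnight received compound for 90 min as a 10-point series, 25 uM–95.4 pM, 0.25% DMSO.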

T1 sequence (P16234 24-1089 D842V): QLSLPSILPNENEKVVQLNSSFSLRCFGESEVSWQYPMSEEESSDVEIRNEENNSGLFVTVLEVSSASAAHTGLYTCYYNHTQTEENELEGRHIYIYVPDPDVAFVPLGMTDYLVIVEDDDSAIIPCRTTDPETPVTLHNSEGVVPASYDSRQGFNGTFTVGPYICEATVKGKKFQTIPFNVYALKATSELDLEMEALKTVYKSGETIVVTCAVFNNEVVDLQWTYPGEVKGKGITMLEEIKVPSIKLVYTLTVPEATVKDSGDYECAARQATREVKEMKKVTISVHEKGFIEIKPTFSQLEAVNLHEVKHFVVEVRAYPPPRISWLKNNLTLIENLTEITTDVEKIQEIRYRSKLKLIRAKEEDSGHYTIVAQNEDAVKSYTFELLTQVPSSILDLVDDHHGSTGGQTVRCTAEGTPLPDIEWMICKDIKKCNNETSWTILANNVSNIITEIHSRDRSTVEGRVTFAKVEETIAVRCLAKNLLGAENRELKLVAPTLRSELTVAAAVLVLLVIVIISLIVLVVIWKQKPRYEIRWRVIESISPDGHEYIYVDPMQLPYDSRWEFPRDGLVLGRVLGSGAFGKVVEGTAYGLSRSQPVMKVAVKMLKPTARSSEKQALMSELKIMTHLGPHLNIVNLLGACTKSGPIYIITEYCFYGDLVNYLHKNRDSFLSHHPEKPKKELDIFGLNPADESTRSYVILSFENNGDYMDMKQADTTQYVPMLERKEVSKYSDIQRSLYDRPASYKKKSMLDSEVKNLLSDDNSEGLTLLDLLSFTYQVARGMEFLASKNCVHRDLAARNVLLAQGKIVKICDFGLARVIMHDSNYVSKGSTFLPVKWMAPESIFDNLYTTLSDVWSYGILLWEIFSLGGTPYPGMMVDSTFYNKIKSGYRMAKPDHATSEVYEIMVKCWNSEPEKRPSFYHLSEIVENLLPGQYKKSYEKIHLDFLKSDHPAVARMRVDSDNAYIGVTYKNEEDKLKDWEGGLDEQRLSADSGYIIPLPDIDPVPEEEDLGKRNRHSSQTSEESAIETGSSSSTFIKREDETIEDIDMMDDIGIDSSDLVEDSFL

| SMILES | IC50 [1] [nM] | IC50 [2] [nM] | IC50 [3] [nM] | IC50 [4] [nM] |
| --- | --- | --- | --- | --- |
| C[C@H](O)Cn1cc(Nc2ncnc(N3CCN(c4ncc(Sc5ccc(F)cc5)cn4)CC3)n2)cn1 [Compound 101] | < 1 | < 1 |  | < 10 |
| c1ccc(Cc2cnc(N3CCN(c4ncnc(Nc5cnn([C@H]6CCNC6)c5)n4)CC3)nc2)cc1 [Compound 52] | < 1 | < 1 | < 10 | 10 to 100 |
| CC(C)(c1ccccc1)c1cnc(N2CCN(c3ncnc(Nc4ccc(N5CCC[C@@H](O)C5)cc4)n3)CC2)nc1 [Compound 263] | 1.01 to 10 | 1.01 to 10 |  | 10 to 100 |
| Cc1c(Nc2ncnc(N3CCN(c4ncc(Cc5ccc(F)cc5)cn4)CC3)n2)cnn1C[C@@H]1CNCCO1 [Compound 271] | 1.01 to 10 | 1.01 to 10 |  | < 10 |
| CN1CCC[C@H]1COc1ccc(Nc2ncnc(N3CCN(c4ncc(Cc5ccccc5)cn4)CC3)n2)cc1 [Compound 219] |  | < 1 | < 10 | 10 to 100 |
| CN1CCC[C@H](Oc2ccc(Nc3ncnc(N4CCN(c5ncc(Cc6ccccc6)cn5)CC4)n3)cc2)C1 [Compound 217] |  | < 1 | < 10 | < 10 |
| COCCn1cc(Nc2ncnc(N3CCN(c4ncc(Cc5ccccc5)cn4)CC3)n2)cn1 [Compound 31] |  | < 1 | < 10 | 10 to 100 |
| CN1CCO[C@H](Cn2cc(Nc3ncnc(N4CCN(c5ncc(Cc6ccccc6)cn5)CC4)n3)cn2)C1 [Compound 181] |  | < 1 | < 10 | 10 to 100 |
| c1ccc(Cc2cnc(N3CCN(c4ncnc(Nc5cnn(CC6CCOC6)c5)n4)CC3)nc2)cc1 (centres unmarked) [Compound 86] |  | < 1 | 11 to 100 | 10 to 100 |
| c1ccc(Nc2cnc(N3CCN(c4ncnc(Nc5ccc(N6CCOCC6)cc5)n4)CC3)nc2)cc1 [Compound 114] |  | 1.01 to 10 | 100 to 1000 | 100 to 1000 |
| c1ccc(Cc2cnc(N3CCN(c4ncnc(Nc5cnn(CC6CCOCC6)c5)n4)CC3)nc2)cc1 [Compound 118] |  | < 1 | < 10 | 10 to 100 |
| CC(C)(O)Cn1cc(Nc2ncnc(N3CCN(c4ncc(Sc5ccc(F)cc5)cn4)CC3)n2)cn1 [Compound 149] | 1.01 to 10 | < 1 |  | 10 to 100 |
| Fc1ccc(Sc2cnc(N3CCN(c4ncnc(Nc5cnn(C[C@@H]6CNCCO6)c5)n4)CC3)nc2)cc1 [Compound 256] | 1.01 to 10 | < 1 |  | 10 to 100 |
| Cc1cc(N2CCN(C)CC2)ccc1Nc1ncnc(N2CCN(c3ncc(Cc4ccccc4)cn3)CC2)n1 [Compound 212] |  | 1.01 to 10 | 11 to 100 | 100 to 1000 |
| CN1CCC[C@@H]1COc1ccc(Nc2ncnc(N3CCN(c4ncc(Cc5ccccc5)c(N)n4)CC3)n2)cc1 [Compound 265] |  | < 1 | < 10 | < 10 |
| C[C@@H]1CN(c2ncnc(Nc3ccc(N4CCOCC4)cc3)n2)CCN1c1ncc(Cc2ccccc2)cn1 [Compound 159] |  | 1.01 to 10 | 11 to 100 | 100 to 1000 |
| O[C@@H]1CCCN(c2ccc(Nc3ncnc(N4CCN(c5ncc(Cc6ccc(F)cc6)cn5)CC4)n3)cc2)C1 [Compound 239] | 1.01 to 10 | 1.01 to 10 |  | 10 to 100 |

Further lines, results first:

| IC50 [1] [nM] | IC50 [2] [nM] | IC50 [3] [nM] | IC50 [4] [nM] | SMILES |
| --- | --- | --- | --- | --- |
| 1.01 to 10 |  |  |  | c1ccc(Cc2cnc(N3CCN(c4ncnc(Nc5cccc(O[C@@H]6CCNC6)c5)n4)CC3)nc2)cc1 [Compound 106] |
| < 1 | < 1 | < 10 | 10 to 100 | CC(C)N1CCc2ccc(Nc3ncnc(N4CCN(c5ncc(Cc6ccccc6)cn5)CC4)n3)cc2C1 [Compound 148] |
| < 1 | 1.01 to 10 | 11 to 100 | 10 to 100 | O=C1CCc2ccc(Nc3ncnc(N4CCN(c5ncc(Cc6ccccc6)cn5)CC4)n3)cc2N1 [Compound 68] |
| 1.01 to 10 | 1.01 to 10 | 11 to 100 | 10 to 100 | c1ccc(Cc2cnc(N3CCN(c4ncnc(Nc5ccc6c(c5)CNCC6)n4)CC3)nc2)nc1 [Compound 44] |
| < 1 | < 1 | < 10 | 10 to 100 | c1ccc(Cc2cnc(N3CCN(c4ncnc(Nc5cn[nH]c5)n4)CC3)nc2)cc1 [Compound 4] |
| 1.01 to 10 | < 1 | < 10 | < 10 | c1ccc(Cc2cnc(N3CCN(c4ncnc(Nc5ccc(O[C@@H]6CCCNC6)cc5)n4)CC3)nc2)cc1 [Compound 161] |
| 1.01 to 10 | < 1 | 11 to 100 | < 10 | O[C@H]1CCCN(c2ccc(Nc3ncnc(N4CCN(c5ncc(Cc6ccccc6)cn5)CC4)n3)cc2)C1 [Compound 166] |
| 1.01 to 10 | < 1 |  | 10 to 100 | OC[C@H](O)c1ccc(Nc2ncnc(N3CCN(c4ncc(Cc5ccccc5)cn4)CC3)n2)cc1 (single isomer, unassigned) [Compound 57] |
|  | < 1 | 11 to 100 | 10 to 100 | c1ccc(Cc2cnc(N3CCN(c4ncnc(Nc5ccc(OC[C@H]6CCCN6)cc5)n4)CC3)nc2)cc1 [Compound 169] |
|  | < 1 | < 10 | 10 to 100 | Nc1cncc(Nc2ncnc(N3CCN(c4ncc(Cc5ccccc5)cn4)CC3)n2)c1 [Compound 13] |
|  | < 1 | < 10 | 10 to 100 | OCCN1CCc2ccc(Nc3ncnc(N4CCN(c5ncc(Cc6ccccc6)cn5)CC4)n3)cc2C1 [Compound 163] |
| 1.01 to 10 | < 1 |  | 10 to 100 | CN1CCN(Cc2cccc(Nc3ncnc(N4CCN(c5ncc(Cc6ccccc6)cn5)CC4)n3)c2)CC1 [Compound 211] |
|  | 1.01 to 10 | 11 to 100 | 10 to 100 | CS(=O)(=O)c1ccc(Nc2ncnc(N3CCN(c4ncc(Cc5ccccc5)cn4)CC3)n2)cc1 [Compound 94] |
|  | 1.01 to 10 | 11 to 100 | 10 to 100 | OC[C@@H]1CCCN1c1ccc(Nc2ncnc(N3CCN(c4ncc(Cc5ccccc5)cn4)CC3)n2)cc1 [Compound 168] |
|  | < 1 | 11 to 100 | 100 to 1000 | NCc1cccc(Nc2ncnc(N3CCN(c4ncc(Cc5ccccc5)cn4)CC3)n2)c1 [Compound 14] |
|  | < 1 | < 10 | 10 to 100 | Fc1ccccc1Cc1cnc(N2CCN(c3ncnc(Nc4ccc5c(c4)CNCC5)n3)CC2)nc1 [Compound 127] |
|  | < 1 | < 10 | 10 to 100 | Oc1ccccc1Cc1cnc(N2CCN(c3ncnc(Nc4ccc5c(c4)CNCC5)n3)CC2)nc1 [Compound 115] |
| 1.01 to 10 | 1.01 to 10 |  | 10 to 100 | C[C@]1(O)CCCN(c2ccc(Nc3ncnc(N4CCN(c5ncc(Cc6ccccc6)cn5)CC4)n3)cc2)C1 (single isomer, unassigned) [Compound 226] |
| < 1 | < 1 |  | 10 to 100 | OC[C@@H](O)c1ccc(Nc2ncnc(N3CCN(c4ncc(Cc5ccccc5)cn4)CC3)n2)cc1 (single isomer, unassigned) [Compound 56] |
|  | 1.01 to 10 | 100 to 1000 | 1000 to 10000 | c1ccc(Cc2cnc(N3CCN(c4ncnc(Nc5cc[nH]n5)n4)CC3)nc2)cc1 [Compound 5] |
|  | < 1 | 11 to 100 | 100 to 1000 | OCc1ccc(Nc2ncnc(N3CCN(c4ncc(Cc5ccccc5)cn4)CC3)n2)cc1 [Compound 16] |
|  | 1.01 to 10 | 100 to 1000 | 10 to 100 | OC[C@H]1CCCN1c1ccc(Nc2ncnc(N3CCN(c4ncc(Cc5ccccc5)cn4)CC3)n2)cc1 [Compound 167] |
|  | 1.01 to 10 | 11 to 100 | 100 to 1000 | CC(O)c1cccc(Nc2ncnc(N3CCN(c4ncc(Cc5ccccc5)cn4)CC3)n2)c1 (centres unmarked) [Compound 26] |
|  | 1.01 to 10 | 11 to 100 | 100 to 1000 | c1ccc(Cc2cnc(N3CCN(c4ncnc(Nc5cccc(CN6CCOCC6)c5)n4)CC3)nc2)cc1 [Compound 160] |
